Assay [1] has as its target T1, human transferrin receptor (hTfR) (Homo sapiens, UniProt P02786). Nature of the assay: SPR measurement under pH 7.4 conditions (Biacore T200, CM3 chip, hTfR captured by His Tag antibody). In kind it is binding. The note with it: read-out: hTfR SPR pH7.4 KD. (SPR reads the build-up and loss of mass on a sensor chip optically.)
Assay [2] has as its target T1, human transferrin receptor (hTfR). Nature of the assay: SPR measurement under pH 6.0 conditions (Biacore T200, NTA chip, immobilized hTfR). The format is binding. The following applies: read-out: hTfR SPR pH6.0 KD.
[3] abbreviates: SPR, pH 7.4, peptide with the linker named in the table.
Setting [4] is: SPR, pH 6.0, peptide with the linker named in the table.

The structures appear in SMILES notation. Bridge positions count the residues as written; N and C are the ends. Square brackets hold non-standard residues; d marks the D form. Peptide text beside a SMILES is read from it. * marks the point of attachment. Trp(7-aza) = N[C@@H](Cc1c[nH]c2ncccc12)C(=O)O; NMePhe(3-Cl) = CN[C@@H](Cc1cccc(Cl)c1)C(=O)O; 3Pal(6-NH2) = Nc1ccc(C[C@H](N)C(=O)O)cn1; NMeW = CN[C@@H](Cc1c[nH]c2ccccc12)C(=O)O; PEG8 = NCCOCCOCCOCCOCCOCCOCCOCCOCCC(=O)O; NMeY = CN[C@@H](Cc1ccc(O)cc1)C(=O)O; PEG4 = NCCOCCOCCOCCOCCC(=O)O; Carboxymethyl = O=C(O)C*; NH(CH2)3NH2 = NCCCN*

The results in this text go back to patent EP4667483A1, “HUMAN TRANSFERRIN RECEPTOR-BINDING PEPTIDE” (JCR Pharmaceuticals Co., Ltd., priority 2023, dated 2024).

A word on the Kd: it is the concentration at which binding is half-saturated.

T1 sequence (P02786 whole entry): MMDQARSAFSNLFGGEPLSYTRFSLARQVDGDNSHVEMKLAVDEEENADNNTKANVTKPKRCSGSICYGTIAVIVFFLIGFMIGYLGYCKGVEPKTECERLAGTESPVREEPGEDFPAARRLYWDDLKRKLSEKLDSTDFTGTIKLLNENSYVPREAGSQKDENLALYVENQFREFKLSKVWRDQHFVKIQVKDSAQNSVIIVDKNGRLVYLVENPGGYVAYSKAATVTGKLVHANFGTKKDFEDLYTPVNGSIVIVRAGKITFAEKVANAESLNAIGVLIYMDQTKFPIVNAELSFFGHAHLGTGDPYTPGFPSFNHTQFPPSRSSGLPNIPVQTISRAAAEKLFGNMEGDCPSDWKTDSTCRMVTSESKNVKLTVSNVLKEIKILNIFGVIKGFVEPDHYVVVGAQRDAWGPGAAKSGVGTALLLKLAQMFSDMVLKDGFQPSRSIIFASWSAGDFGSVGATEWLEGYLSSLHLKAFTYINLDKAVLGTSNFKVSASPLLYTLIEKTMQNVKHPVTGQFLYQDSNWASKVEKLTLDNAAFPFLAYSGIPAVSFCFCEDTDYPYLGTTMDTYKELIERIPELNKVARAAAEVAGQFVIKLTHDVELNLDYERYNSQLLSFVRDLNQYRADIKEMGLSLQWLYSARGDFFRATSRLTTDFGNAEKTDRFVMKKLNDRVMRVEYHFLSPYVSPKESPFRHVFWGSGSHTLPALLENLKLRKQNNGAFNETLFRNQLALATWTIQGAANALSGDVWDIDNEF

Consider `CC[C@H](C)[C@@H]1NC(=O)[C@H](Cc2ccc(OCC(=O)O)cc2)NC(=O)[C@H](Cc2ccc(O)cc2)NC(=O)[C@H](CC(N)=O)NC(=O)[C@H](Cc2c[nH]c3ncccc23)NC(=O)[C@H](C(C)C)NC(=O)[C@H](Cc2cccc(Cl)c2)N(C)C(=O)[C@H](C(C)C)NC(=O)[C@H](C)NC(=O)CSC[C@@H](C(=O)NCCOCCOCCOCCOCCC(N)=O)NC(=O)[C@H](Cc2ccc(O)cc2)N(C)C(=O)[C@H](CCC(=O)NCCOCCOCCOCCOCCOCCOCCOCCOCCC(=O)O)NC(=O)[C@H](CCCNC(=N)N)NC(=O)[C@H](CCC(N)=O)NC(=O)[C@H]([C@@H](C)CC)NC1=O` [compound 139] ({CH2CO}-AV[NMePhe(3-Cl)]V[Trp(7-aza)]NYY(Carboxymethyl)IIQRE(PEG8)[NMeY]C[PEG4]-NH2; thioether N-15), for which the Kd in assay [1] (setting [3]) came to 107 nM; in assay [2] (setting [4]), 524 nM.
The corresponding values for `CC[C@H](C)[C@@H]1NC(=O)[C@H](Cc2ccc(OCC(=O)O)cc2)NC(=O)[C@H](Cc2ccc(O)cc2)NC(=O)[C@H](CC(N)=O)NC(=O)[C@H](Cc2c[nH]c3ncccc23)NC(=O)[C@H](C(C)C)NC(=O)[C@H](Cc2cccc(Cl)c2)N(C)C(=O)[C@H](C(C)C)NC(=O)[C@H](C)NC(=O)CSC[C@@H](C(=O)NCCOCCOCCOCCOCCC(N)=O)NC(=O)[C@H](Cc2ccc(O)cc2)N(C)C(=O)[C@H](Cc2cccc(C(=O)NCCOCCOCCOCCOCCOCCOCCOCCOCCC(=O)O)c2)NC(=O)[C@H](CCCNC(=N)N)NC(=O)[C@H](CCC(N)=O)NC(=O)[C@H]([C@@H](C)CC)NC1=O` [compound 140] are 5.63 nM and 22.1 nM.
The corresponding values for `CC[C@H](C)[C@@H]1NC(=O)[C@H](Cc2ccc(OC)cc2)NC(=O)[C@H](Cc2ccc(O)cc2)NC(=O)[C@H](CC(N)=O)NC(=O)[C@H](Cc2c[nH]c3ncccc23)NC(=O)[C@H](C(C)C)NC(=O)[C@H](Cc2cccc(Cl)c2)N(C)C(=O)[C@H](C(C)C)NC(=O)[C@H](C)NC(=O)CSC[C@@H](C(=O)NCCOCCOCCOCCOCCC(N)=O)NC(=O)[C@H](Cc2ccc(O)cc2)N(C)C(=O)[C@H](CCC(=O)NCCOCCOCCOCCOCCOCCOCCOCCOCCC(=O)O)NC(=O)[C@H](CCCNC(=N)N)NC(=O)[C@H](CCC(=O)NCCOCCOCCOCCOCCOCCOCCOCCOCCC(=O)O)NC(=O)[C@H]([C@@H](C)CC)NC1=O` [compound 141] ({CH2CO}-AV[NMePhe(3-Cl)]V[Trp(7-aza)]NYY(Me)IIE(PEG8)RE(PEG8)[NMeY]C[PEG4]-NH2; thioether N-15) are 142 nM and 212 nM.
Turning to `CC[C@H](C)[C@@H]1NC(=O)[C@H](Cc2ccc(OC)cc2)NC(=O)[C@H](Cc2ccc(O)cc2)NC(=O)[C@H](CC(N)=O)NC(=O)[C@H](Cc2c[nH]c3ncccc23)NC(=O)[C@H](C(C)C)NC(=O)[C@H](Cc2cccc(Cl)c2)N(C)C(=O)[C@H](C(C)C)NC(=O)[C@H](C)NC(=O)CSC[C@@H](C(=O)NCCOCCOCCOCCOCCC(N)=O)NC(=O)[C@H](Cc2ccc(O)cc2)N(C)C(=O)[C@H](Cc2cccc(C(=O)NCCOCCOCCOCCOCCOCCOCCOCCOCCC(=O)O)c2)NC(=O)[C@H](CCCNC(=N)N)NC(=O)[C@H](CCC(=O)NCCOCCOCCOCCOCCOCCOCCOCCOCCC(=O)O)NC(=O)[C@H]([C@@H](C)CC)NC1=O` [compound 142], the Kd in assay [1] (setting [3]) worked out at 2.15 nM; in assay [2] (setting [4]), 17.8 nM.
The corresponding values for `CC[C@H](C)[C@@H]1NC(=O)[C@H](Cc2ccc(OCC(=O)O)cc2)NC(=O)[C@H](Cc2ccc(O)cc2)NC(=O)[C@H](CC(N)=O)NC(=O)[C@H](Cc2c[nH]c3ncccc23)NC(=O)[C@H](C(C)C)NC(=O)[C@H](Cc2cccc(Cl)c2)N(C)C(=O)[C@H](C(C)C)NC(=O)[C@H](C)NC(=O)CSC[C@@H](C(=O)NCCOCCOCCOCCOCCC(N)=O)NC(=O)[C@H](Cc2ccc(O)cc2)N(C)C(=O)[C@H](CCC(=O)NCCOCCOCCOCCOCCC(=O)O)NC(=O)[C@H](CCCNC(=N)N)NC(=O)[C@H](CCC(N)=O)NC(=O)[C@H]([C@@H](C)CC)NC1=O` [compound 143] ({CH2CO}-AV[NMePhe(3-Cl)]V[Trp(7-aza)]NYY(Carboxymethyl)IIQRE(PEG4)[NMeY]C[PEG4]-NH2; thioether N-15) are 59.1 nM and 271 nM.
For `CC[C@H](C)[C@@H]1NC(=O)[C@H](Cc2ccc(OCC(=O)O)cc2)NC(=O)[C@H](Cc2ccc(O)cc2)NC(=O)[C@H](CC(N)=O)NC(=O)[C@H](Cc2c[nH]c3ncccc23)NC(=O)[C@H](C(C)C)NC(=O)[C@H](Cc2cccc(Cl)c2)N(C)C(=O)[C@H](C(C)C)NC(=O)[C@H](C)NC(=O)CSC[C@@H](C(=O)NCCOCCOCCOCCOCCC(N)=O)NC(=O)[C@H](Cc2ccc(O)cc2)N(C)C(=O)[C@H](Cc2cccc(C(=O)NCCOCCOCCOCCOCCC(=O)O)c2)NC(=O)[C@H](CCCNC(=N)N)NC(=O)[C@H](CCC(N)=O)NC(=O)[C@H]([C@@H](C)CC)NC1=O` [compound 144], in that order: 3.56 nM and 17.4 nM.
For `CC[C@H](C)[C@@H]1NC(=O)[C@H](Cc2ccc(OC)cc2)NC(=O)[C@H](Cc2ccc(O)cc2)NC(=O)[C@H](CC(N)=O)NC(=O)[C@H](Cc2c[nH]c3ncccc23)NC(=O)[C@H](C(C)C)NC(=O)[C@H](Cc2cccc(Cl)c2)N(C)C(=O)[C@H](C(C)C)NC(=O)[C@H](C)NC(=O)CSC[C@@H](C(=O)NCCOCCOCCOCCOCCC(N)=O)NC(=O)[C@H](Cc2ccc(O)cc2)N(C)C(=O)[C@H](CCC(=O)NCCOCCOCCOCCOCCC(=O)O)NC(=O)[C@H](CCCNC(=N)N)NC(=O)[C@H](CCC(=O)NCCOCCOCCOCCOCCC(=O)O)NC(=O)[C@H]([C@@H](C)CC)NC1=O` [compound 145] ({CH2CO}-AV[NMePhe(3-Cl)]V[Trp(7-aza)]NYY(Me)IIE(PEG4)RE(PEG4)[NMeY]C[PEG4]-NH2; thioether N-15), in that order: 48.5 nM and 199 nM.
With `CC[C@H](C)[C@@H]1NC(=O)[C@H](Cc2ccc(OC)cc2)NC(=O)[C@H](Cc2ccc(O)cc2)NC(=O)[C@H](CC(N)=O)NC(=O)[C@H](Cc2c[nH]c3ncccc23)NC(=O)[C@H](C(C)C)NC(=O)[C@H](Cc2cccc(Cl)c2)N(C)C(=O)[C@H](C(C)C)NC(=O)[C@H](C)NC(=O)CSC[C@@H](C(=O)NCCOCCOCCOCCOCCC(N)=O)NC(=O)[C@H](Cc2ccc(O)cc2)N(C)C(=O)[C@H](Cc2cccc(C(=O)NCCOCCOCCOCCOCCC(=O)O)c2)NC(=O)[C@H](CCCNC(=N)N)NC(=O)[C@H](CCC(=O)NCCOCCOCCOCCOCCC(=O)O)NC(=O)[C@H]([C@@H](C)CC)NC1=O` [compound 146], the Kd in assay [1] (setting [3]) turned out to be 2.75 nM; in assay [2] (setting [4]) it was 11.4 nM.
For `CC[C@H](C)[C@@H]1NC(=O)[C@H](Cc2ccc(OCC(=O)O)cc2)NC(=O)[C@H](Cc2ccc(N)nc2)NC(=O)[C@H](CC(N)=O)NC(=O)[C@H](Cc2c[nH]c3ccccc23)NC(=O)[C@H](C(C)C)NC(=O)[C@H](Cc2cccc(Cl)c2)N(C)C(=O)[C@H](C(C)C)NC(=O)[C@H](C)NC(=O)CSC[C@@H](C(=O)NCC(=O)N[C@@H](CCCCN=[N+]=[N-])C(N)=O)NC(=O)[C@H](Cc2ccc(O)cc2)N(C)C(=O)[C@H](Cc2cccc(C(=O)O)c2)NC(=O)[C@H](CCCNC(=N)N)NC(=O)[C@H](CCC(N)=O)NC(=O)[C@H]([C@@H](C)CC)NC1=O` [compound 149], in that order: 3.57 nM and 28.1 nM.
As to `CC[C@H](C)[C@@H]1NC(=O)[C@H](Cc2ccc(OC)cc2)NC(=O)[C@H](Cc2ccc(N)nc2)NC(=O)[C@H](CC(N)=O)NC(=O)[C@H](Cc2c[nH]c3ccccc23)N(C)C(=O)[C@H](C(C)C)NC(=O)[C@H](Cc2cccc(Cl)c2)N(C)C(=O)[C@H](C(C)C)NC(=O)[C@H](C)NC(=O)CSC[C@@H](C(=O)NCCOCCOCCOCCOCCC(N)=O)NC(=O)[C@H](Cc2ccc(O)cc2)N(C)C(=O)[C@H](Cc2ccccc2)NC(=O)[C@H](CCCNC(=N)N)NC(=O)[C@H](CCC(N)=O)NC(=O)[C@H]([C@@H](C)CC)NC1=O` [compound 170] ({CH2CO}-AV[NMePhe(3-Cl)]V[NMeW]N[3Pal(6-NH2)]Y(Me)IIQRF[NMeY]C[PEG4]-NH2; thioether N-15), the Kd worked out at 1.34 nM in assay [1] (pH 7.4, single-cycle kinetics) and 7.61 nM in assay [2] (pH 6.0, single-cycle kinetics).
For the compound `CC[C@H](C)[C@@H]1NC(=O)[C@H](Cc2ccc(OC)cc2)NC(=O)[C@H](Cc2ccc(N)nc2)NC(=O)[C@H](CC(N)=O)NC(=O)[C@H](Cc2c[nH]c3ccccc23)N(C)C(=O)[C@H](C(C)C)NC(=O)[C@H](Cc2cccc(Cl)c2)N(C)C(=O)[C@H](C(C)C)NC(=O)[C@H](C)NC(=O)CSC[C@@H](C(=O)NCCOCCOCCOCCOCCC(N)=O)NC(=O)[C@H](Cc2ccc(O)cc2)N(C)C(=O)[C@H](Cc2ccccc2)NC(=O)[C@H](CCCNC(=N)N)NC(=O)[C@H](CCC(=O)NCCCN)NC(=O)[C@H]([C@@H](C)CC)NC1=O` [compound 172] ({CH2CO}-AV[NMePhe(3-Cl)]V[NMeW]N[3Pal(6-NH2)]Y(Me)IIE(NH(CH2)3NH2)RF[NMeY]C[PEG4]-NH2; thioether N-15), the Kd worked out at 0.215 nM in assay [1] (pH 7.4, single-cycle kinetics) and 2.59 nM in assay [2] (pH 6.0, single-cycle kinetics).
The corresponding values for `CC[C@H](C)[C@@H]1NC(=O)[C@H](Cc2ccc(OC)cc2)NC(=O)[C@H](CCCNC(=N)N)NC(=O)[C@H](CC(N)=O)NC(=O)[C@H](Cc2c[nH]c3ccccc23)N(C)C(=O)[C@H](C(C)C)NC(=O)[C@H](Cc2cccc(Cl)c2)N(C)C(=O)[C@H](C(C)C)NC(=O)[C@H](C)NC(=O)CSC[C@@H](C(=O)NCCOCCOCCOCCOCCC(N)=O)NC(=O)[C@H](Cc2ccc(O)cc2)N(C)C(=O)[C@H](Cc2ccccc2)NC(=O)[C@H](CCCNC(=N)N)NC(=O)[C@H](CCC(N)=O)NC(=O)[C@H]([C@@H](C)CC)NC1=O` [compound 174] ({CH2CO}-AV[NMePhe(3-Cl)]V[NMeW]NRY(Me)IIQRF[NMeY]C[PEG4]-NH2; thioether N-15) are 20.6 nM and 75.5 nM.
